# Assay results taken from ChEMBL document CHEMBL1156934, “Synthesis and SAR of thiazolidinedione derivatives as 15-PGDH inhibitors” (Bioorg Med Chem, 2010).
# Target: T1, 15-hydroxyprostaglandin dehydrogenase [NAD(+)] (Homo sapiens, UniProt P15428)
# T1 sequence (P15428 whole entry): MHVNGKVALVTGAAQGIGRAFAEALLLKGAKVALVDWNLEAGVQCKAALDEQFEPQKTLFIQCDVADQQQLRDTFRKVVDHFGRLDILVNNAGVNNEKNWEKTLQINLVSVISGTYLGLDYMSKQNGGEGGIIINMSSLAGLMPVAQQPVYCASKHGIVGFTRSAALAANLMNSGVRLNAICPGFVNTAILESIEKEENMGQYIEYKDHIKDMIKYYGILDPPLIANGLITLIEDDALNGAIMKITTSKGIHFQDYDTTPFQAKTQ
# Test: Inhibition of human 15PGDH expressed in Escherichia coli BL-21 by fluorescence spectrophotometry
row,Compound,IC50
1,O=C1NC(=O)/C(=C/c2ccc(OCCC3CCCCO3)cc2)S1 (stereo unspecified),750 nM
2,O=C1NC(=O)/C(=C/c2ccc(OCc3cccs3)cc2)S1,287 nM
3,O=C1S/C(=C\c2ccc(OCCC3CCCCC3)cc2)C(=O)N1CCO,526 nM
4,O=C1NC(=O)/C(=C\c2ccc(OCC3COc4ccccc4O3)cc2)S1 (stereo unspecified),172 nM
5,O=C1NC(=O)/C(=C/c2ccc(OCCN3CCOCC3)cc2)S1,713 nM
6,COC(=O)C1CCC(COc2ccc(/C=C3\SC(=O)NC3=O)cc2)CC1 (stereo unspecified),620 nM
7,O=C1NC(=O)/C(=C\c2ccc(OCc3ccc(-c4ccccc4)cc3)cc2)S1,814 nM
8,O=C1NC(=O)/C(=C/c2ccc(OCc3ccco3)cc2)S1,893 nM
9,O=C1NC(=O)/C(=C/c2ccc(OCCC3CCCCC3)cc2)N1,865 nM
10,COc1ccc(COc2ccc(/C=C3\SC(=O)NC3=O)cc2)cc1,529 nM
11,O=C1C/C(=C\c2ccc(OCCC3CCCCC3)cc2)C(=O)N1,3790 nM
12,O=C1NC(=O)/C(=C/c2ccc(OCC3CCCC3)cc2)S1,45 nM

# The next lines start with the values.
row,IC50,Compound
1,31 nM,O=C1N=C(O)S/C1=C\c1ccc(OCCc2cccs2)cc1
2,3720 nM,O=C1N=C(O)S/C1=C\c1ccc(OCCNC2CCCCC2)cc1
3,636 nM,Cc1ncsc1CCOc1ccc(/C=C2\SC(O)=NC2=O)cc1
4,232 nM,Cc1ccc(COc2ccc(/C=C3\SC(O)=NC3=O)cc2)cc1
5,429 nM,O=C1N=C(O)S/C1=C\c1ccc(OCc2ccsc2)cc1
6,116 nM,O=C1NC(=O)/C(=C/c2ccc(OCCC3CCCC3)cc2)S1
7,1250 nM,CC(C)OCCOc1ccc(/C=C2\SC(O)=NC2=O)cc1
8,660 nM,O=C1N=C(O)S/C1=C\c1ccc(OCCc2ccccn2)cc1
9,52 nM,CC1CCC(COc2ccc(/C=C3\SC(O)=NC3=O)cc2)CC1 (stereo unspecified)
10,274 nM,O=C1N=C(O)S/C1=C\c1ccc(OCCN2CCS(=O)(=O)CC2)cc1
11,1440 nM,O=C1N=C(O)S/C1=C\c1ccc(OCCN2CCCCC2)cc1
12,1960 nM,O=C1N=C(O)S/C1=C\c1ccc(OCCCN2CCS(=O)(=O)CC2)cc1
13,252 nM,O=C1N=C(O)S/C1=C\c1ccc(OCc2ccc3c(c2)OCO3)cc1
14,60 nM,O=C1NC(=O)/C(=C/c2ccc(OCCc3ccsc3)cc2)S1
